In patent publication US12297178B2, “Triazole derivative and use thereof” (GYEONGGIDO BUSINESS & SCIENCE ACCELERATOR, priority 2017, dated 2025):

Experiments:
UCP1 = details: reported in US Patent Publication No. US 2015/0374643 A1; cited from earlier work
[1] = system: UCP1 (uncoupling protein-1); assay: Adipocyte differentiation induction experiment: relative UCP1 expression by real time PCR in C3H10T1/2 cells differentiated into white adipocytes; type: cell-based; details: compound 20 μM; for Relative expression level of UCP1 compared to DMSO: relative to DMSO control; for Relative expression level of UCP1 compared to butein: relative to butein 20 μM control
Description: C3H10T1/2 cells were commercially purchased, and then differentiated into white adipocytes. The differentiated adipocytes were treated with the compounds obtained in the Preparation Examples at a concentration of 20 μM. A group treated with DMSO at a concentration of 20 μM and a group treated with butein at a concentration of 20 μM were used as a control group, respectively.
While the UCP1 (uncoupling protein-1) is contained in the mitochondria of brown adipocytes or beige adipocytes, it is difficult to find UCP1 in white adipocytes having little mitochondria. Therefore, by measuring the expression level of UCP1, it is possible to determine whether preadipocytes have differentiated into white adipocytes or otherwise brown adipocytes or beige adipocytes. The higher the expression level of UCP1, the more differentiated preadipocytes into brown adipocytes or beige adipocytes.

SMILES	Effect on expression level of UCP1 (UCP1)	Relative expression level of UCP1 compared to DMSO [1]	Relative expression level of UCP1 compared to butein [1]
O=C(/C=C/c1ccc(O)c(O)c1)c1ccc(O)cc1O [butein]	increases the expression level of UCP1	–	–
Cc1cc(-n2cc(-c3ccc(O)c(O)c3)nn2)ccc1O [Compound 5, 4-(1-(4-hydroxy-3-methylphenyl)-1H-1,2,3-triazole-4-yl)benzene-1.2-diol]	–	2.3	20.6
Oc1ccc(-n2cc(-c3ccc(O)c(O)c3)nn2)cc1 [Compound 4, 4-(1-(4-hydroxyphenyl)-1H-1,2,3-triazole-4-yl)benzene-1,2-diol]	–	2.1	18.6
Nc1c(-c2ccc(Cl)cc2)nnn1-c1ccc(O)c(O)c1 [Compound 24, 4-(5-amino-4-(4-chlorophenyl)-1H-1,2,3-triazole-1-yl)benzene-1,2-diol]	–	10.6	29.7
C[NH+](C)CCOc1ccc(-n2cc(-c3ccc(O)c(O)c3)nn2)cc1.[Cl-] [Compound 16, 4-(1-(4-(2-(dimethylamino)ethoxy)phenyl)-1H-1,2,3-triazole-4-yl)benzene-1,2-diol Hydrochloride]	–	2.3	37.0
Oc1ccc(-c2cn(-c3ccc(Cl)cc3)nn2)cc1O [Compound 2, 4-(1-(4-chlorophenyl)-1H-1,2,3-triazole-4-yl)benzene-1,2-diol]	–	6.6	18.6
COc1ccc(-n2cc(-c3ccc(O)c(O)c3)nn2)c(OC)c1 [Compound 1, 4-(1-(2,4-dimethoxyphenyl)-1H-1,2,3-triazole-4-yl)benzene-1.2-diol]	–	3.5	12.2
OCCOc1ccc(-n2cc(-c3ccc(O)c(O)c3)nn2)cc1 [Compound 15, 4-(1-(4-(2-hydroxyethoxy)phenyl)-1H-1,2,3-triazole-4-yl)benzene-1,2-diol]	–	1.6	26.9
Oc1ccc(-c2cn(-c3ccc(F)cc3)nn2)cc1O [Compound 3, 4-(1-(4-fluorophenyl)-1H-1,2,3-triazole-4-yl)benzene-1,2-diol]	–	12.2	34.1
